Laboratory results: ChEMBL document CHEMBL1649488, “In vitro activities of echinocandins against Candida krusei determined by three methods: MIC and minimal fungicidal concentration measurements and time-kill studies” (2009)
Converted amounts (≈) assume the structure as drawn. Starred links: 1 amine or outer side, 2 acyl side, 3 side chain; linkers in the order of their positions; H or OH if unused. Positions of bridges follow the written chain, without caps; N, C: chain ends. Non-standard residues stand in square brackets, D forms with d. Residues, ends and D or L forms follow the SMILES beside them. *: point of attachment. hTyr(3S-OH,4S-OH,3'-OSO3H) = N[C@H](C(=O)O)[C@H](O)[C@@H](O)c1ccc(O)c(OS(=O)(=O)O)c1; Orn(4R-OH,5R-OH) = O=C([C@H](C[C@@H](O)[C@@H](O)N[*:3])N[*:1])[*:2]; Pro(3S-OH,4S-Me) = C[C@H]1CN[C@H](C(=O)O)[C@H]1O; X1 = CCCCCOc1ccc(-c2cc(-c3ccc(C(=O)*)cc3)no2)cc1; Gln(3R-OH) = NC(=O)C[C@@H](O)[C@H](N)C(=O)O; Hyp = O=C(O)[C@@H]1C[C@@H](O)CN1

Legend:
Assay type in all cases: functional
Pichia kudriavzevii [1] = assay: Antifungal activity against Candida krusei ATCC 6258 bloodstream forms assessed as minimum concentration producing >= 100% growth reduction after 24 hrs by M27-A3 microdilution method; settings: ATCC 6258, 24 h
Pichia kudriavzevii [2] = assay: Fungicidal activity against Candida krusei ATCC 6258 bloodstream forms after 48 hrs by M27-A3 microdilution method
Pichia kudriavzevii [3] = assay: Antifungal activity against Candida krusei ATCC 6258 bloodstream forms assessed as minimum concentration producing >= 50% growth reduction after 24 hrs by M27-A3 microdilution method; settings: ATCC 6258, 24 h
Pichia kudriavzevii [4] = assay: Antifungal activity against Candida krusei CK1 bloodstream forms after 24 hrs by time-kill analysis; settings: CK1, 24 h
Pichia kudriavzevii [5] = assay: Fungicidal activity against Candida krusei CK1 bloodstream forms after 24 hrs by time-kill analysis; settings: CK1, 24 h
Pichia kudriavzevii [6] = assay: Antifungal activity against Candida krusei CK2 bloodstream forms after 24 hrs by time-kill analysis; settings: CK2, 24 h
Pichia kudriavzevii [7] = assay: Fungicidal activity against Candida krusei CK2 bloodstream forms after 24 hrs by time-kill analysis; settings: CK2, 24 h
Pichia kudriavzevii [8] = assay: Antifungal activity against Candida krusei CK6 bloodstream forms after 24 hrs by time-kill analysis; settings: CK6, 24 h
Pichia kudriavzevii [9] = assay: Fungicidal activity against Candida krusei CK6 bloodstream forms after 24 hrs by time-kill analysis; settings: CK6, 24 h
Pichia kudriavzevii [10] = assay: Antifungal activity against Candida krusei CK18 bloodstream forms after 24 hrs by time-kill analysis; settings: CK18, 24 h
Pichia kudriavzevii [11] = assay: Fungicidal activity against Candida krusei CK18 bloodstream forms after 24 hrs by time-kill analysis; settings: CK18, 24 h
Pichia kudriavzevii [12] = assay: Antifungal activity against Candida krusei EU123 bloodstream forms after 24 hrs by time-kill analysis; settings: EU123, 24 h
Pichia kudriavzevii [13] = assay: Fungicidal activity against Candida krusei EU123 bloodstream forms after 24 hrs by time-kill analysis; settings: EU123, 24 h
Pichia kudriavzevii [14] = assay: Antifungal activity against Candida krusei EU220 bloodstream forms after 24 hrs by time-kill analysis; settings: EU220, 24 h
Pichia kudriavzevii [15] = assay: Fungicidal activity against Candida krusei EU220 bloodstream forms after 24 hrs by time-kill analysis; settings: EU220, 24 h
Pichia kudriavzevii [16] = assay: Antifungal activity against Candida krusei CY118 bloodstream forms after 24 hrs by time-kill analysis; settings: CY118, 24 h
Pichia kudriavzevii [17] = assay: Fungicidal activity against Candida krusei CY118 bloodstream forms after 24 hrs by time-kill analysis; settings: CY118, 24 h
Pichia kudriavzevii [18] = assay: Antifungal activity against Candida krusei ATCC 6258 bloodstream forms after 24 hrs by time-kill analysis; settings: ATCC 6258, 24 h
Pichia kudriavzevii [19] = assay: Fungicidal activity against Candida krusei ATCC 6258 bloodstream forms after 24 hrs by time-kill analysis; settings: ATCC 6258, 24 h
Pichia kudriavzevii [20] = assay: Antifungal activity against Candida krusei ATCC 6258 bloodstream forms assessed as time to achieve 50% fungal growth reduction at 0.25 mg/L by time-kill analysis
Pichia kudriavzevii [21] = assay: Antifungal activity against Candida krusei ATCC 6258 bloodstream forms assessed as time to achieve 90% fungal growth reduction at 0.25 mg/L by time-kill analysis
Pichia kudriavzevii [22] = assay: Antifungal activity against Candida krusei ATCC 6258 bloodstream forms assessed as time to achieve 99% fungal growth reduction at 0.25 mg/L by time-kill analysis
Pichia kudriavzevii [23] = assay: Antifungal activity against Candida krusei ATCC 6258 bloodstream forms assessed as time to achieve 99.9% fungal growth reduction at 0.25 mg/L by time-kill analysis
Pichia kudriavzevii [24] = assay: Antifungal activity against Candida krusei ATCC 6258 bloodstream forms assessed as time to achieve 50% fungal growth reduction at 1 mg/L by time-kill analysis
Pichia kudriavzevii [25] = assay: Antifungal activity against Candida krusei ATCC 6258 bloodstream forms assessed as time to achieve 90% fungal growth reduction at 1 mg/L by time-kill analysis
Pichia kudriavzevii [26] = assay: Antifungal activity against Candida krusei ATCC 6258 bloodstream forms assessed as time to achieve 99% fungal growth reduction at 1 mg/L by time-kill analysis
Pichia kudriavzevii [27] = assay: Antifungal activity against Candida krusei ATCC 6258 bloodstream forms assessed as time to achieve 99.9% fungal growth reduction at 1 mg/L by time-kill analysis
Pichia kudriavzevii [28] = assay: Antifungal activity against Candida krusei ATCC 6258 bloodstream forms assessed as time to achieve 50% fungal growth reduction at 4 mg/L by time-kill analysis
Pichia kudriavzevii [29] = assay: Antifungal activity against Candida krusei ATCC 6258 bloodstream forms assessed as time to achieve 90% fungal growth reduction at 4 mg/L by time-kill analysis
Pichia kudriavzevii [30] = assay: Antifungal activity against Candida krusei ATCC 6258 bloodstream forms assessed as time to achieve 99% fungal growth reduction at 4 mg/L by time-kill analysis
Pichia kudriavzevii [31] = assay: Antifungal activity against Candida krusei ATCC 6258 bloodstream forms assessed as time to achieve 99.9% fungal growth reduction at 4 mg/L by time-kill analysis
Pichia kudriavzevii [32] = assay: Antifungal activity against Candida krusei ATCC 6258 bloodstream forms assessed as time to achieve 50% fungal growth reduction at 16 mg/L by time-kill analysis
Pichia kudriavzevii [33] = assay: Antifungal activity against Candida krusei ATCC 6258 bloodstream forms assessed as time to achieve 90% fungal growth reduction at 16 mg/L by time-kill analysis
Pichia kudriavzevii [34] = assay: Antifungal activity against Candida krusei ATCC 6258 bloodstream forms assessed as time to achieve 99% fungal growth reduction at 16 mg/L by time-kill analysis
Pichia kudriavzevii [35] = assay: Antifungal activity against Candida krusei ATCC 6258 bloodstream forms assessed as time to achieve 99.9% fungal growth reduction at 16 mg/L by time-kill analysis
Pichia kudriavzevii [36] = assay: Antifungal activity against Candida krusei ATCC 6258 bloodstream forms assessed as minimum concentration producing >= 50% growth reduction after 48 hrs by M27-A3 microdilution method; settings: ATCC 6258, 48 h
Pichia kudriavzevii [37] = assay: Antifungal activity against Candida krusei ATCC 6258 bloodstream forms assessed as minimum concentration producing >= 100% growth reduction after 48 hrs by M27-A3 microdilution method; settings: ATCC 6258, 48 h

Work on `CCCCCOc1ccc(-c2cc(-c3ccc(C(=O)N[C@H]4C[C@@H](O)[C@@H](O)NC(=O)[C@@H]5[C@@H](O)[C@@H](C)CN5C(=O)[C@H]([C@H](O)CC(N)=O)NC(=O)[C@H]([C@H](O)[C@@H](O)c5ccc(O)c(OS(=O)(=O)O)c5)NC(=O)[C@@H]5C[C@@H](O)CN5C(=O)[C@H]([C@@H](C)O)NC4=O)cc3)no2)cc1` [MICAFUNGIN] (X1-[Orn(4R-OH,5R-OH)]T[Hyp][hTyr(3S-OH,4S-OH,3'-OSO3H)][Gln(3R-OH)][Pro(3S-OH,4S-Me)]; lactam 1-C) yielded an MIC50 (Pichia kudriavzevii [1]) of 0.5 µg/mL (≈ 0.394 µM), an MIC90 (Pichia kudriavzevii [1]) of 0.5 µg/mL (≈ 0.394 µM) and an MFC50 (Pichia kudriavzevii [2]) of 0.5 µg/mL (≈ 0.394 µM). For the same compound, the MFC90 (Pichia kudriavzevii [2]) was 0.5 µg/mL (≈ 0.394 µM), the MFC (Pichia kudriavzevii [2]; Pichia kudriavzevii, ATCC 6258, 48 h) was 0.25 µg/mL (≈ 0.197 µM) and the MIC50 (Pichia kudriavzevii [3]) was 0.25 µg/mL (≈ 0.197 µM). The MIC90 (Pichia kudriavzevii [3]) was 0.5 µg/mL (≈ 0.394 µM), the MIC (Pichia kudriavzevii [4]) was 0.25 µg/mL (≈ 0.197 µM) and the MFC (Pichia kudriavzevii [5]) was 0.5 µg/mL (≈ 0.394 µM). For the same compound, the MIC (Pichia kudriavzevii [6]) was 0.5 µg/mL (≈ 0.394 µM), the MFC (Pichia kudriavzevii [7]) was 0.5 µg/mL (≈ 0.394 µM) and the MIC (Pichia kudriavzevii [8]) was 0.5 µg/mL (≈ 0.394 µM). The MFC (Pichia kudriavzevii [9]) was 0.5 µg/mL (≈ 0.394 µM), the MIC (Pichia kudriavzevii [10]) was 0.25 µg/mL (≈ 0.197 µM) and the MFC (Pichia kudriavzevii [11]) was 0.5 µg/mL (≈ 0.394 µM). The MIC (Pichia kudriavzevii [12]) was 0.12 µg/mL (≈ 0.0945 µM), the MFC (Pichia kudriavzevii [13]) was 0.5 µg/mL (≈ 0.394 µM) and the MIC (Pichia kudriavzevii [14]) was 0.25 µg/mL (≈ 0.197 µM). For the same compound, the MFC (Pichia kudriavzevii [15]) was 0.25 µg/mL (≈ 0.197 µM), the MIC (Pichia kudriavzevii [16]) was 1 µg/mL (≈ 0.787 µM) and the MFC (Pichia kudriavzevii [17]) was 16 µg/mL (≈ 12.6 µM). For the same compound, the MIC (Pichia kudriavzevii [18]) was 0.12 µg/mL (≈ 0.0945 µM), the MFC (Pichia kudriavzevii [19]) was 0.25 µg/mL (≈ 0.197 µM) and the Time (Pichia kudriavzevii [20]) was 3.1 h. It also gave a Time (Pichia kudriavzevii [21]) of 10.3 h, a Time (Pichia kudriavzevii [22]) of 20.6 h and a Time (Pichia kudriavzevii [23]) of 31 h. The Time (Pichia kudriavzevii [24]) was 3.1 h, the Time (Pichia kudriavzevii [25]) was 10.2 h and the Time (Pichia kudriavzevii [26]) was 20.5 h. It also gave a Time (Pichia kudriavzevii [27]) of 30.7 h, a Time (Pichia kudriavzevii [28]) of 3.2 h and a Time (Pichia kudriavzevii [29]) of 10.63 h. It also gave a Time (Pichia kudriavzevii [30]) of 21.25 h, a Time (Pichia kudriavzevii [31]) of 31.88 h and a Time (Pichia kudriavzevii [32]) of 2.6 h. The Time (Pichia kudriavzevii [33]) was 8.64 h, the Time (Pichia kudriavzevii [34]) was 17.28 h and the Time (Pichia kudriavzevii [35]) was 25.91 h. For the same compound, the MIC50 (Pichia kudriavzevii [36]) was 0.5 µg/mL (≈ 0.394 µM), the MIC90 (Pichia kudriavzevii [36]) was 0.5 µg/mL (≈ 0.394 µM) and the MIC50 (Pichia kudriavzevii [37]) was 0.5 µg/mL (≈ 0.394 µM). The MIC90 (Pichia kudriavzevii [37]) was 0.5 µg/mL (≈ 0.394 µM).
